Assay results taken from ChEMBL document CHEMBL1201862, “PubChem BioAssay data set” (2004).
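Each compound was tested at five concentrations against cells in 96-well plates for 48 hours. GI50: concentration for 50% inhibition of growth.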 Calls of active or inactive are those of the source. No stated cut-off is given here; in the data, active = GI50 up to about 1.1 µM and inactive = higher.

How the values were obtained:
Test in all cases: growth of human tumour cells (NCI), 48 h
DU-145 = test system: DU-145
HOP-92 = test system: HOP-92
MDA-MB-435 = test system: MDA-MB-435
SW-620 = test system: SW-620
NCI-H23 = test system: NCI-H23
COLO 205 = test system: COLO 205
SN12C = test system: SN12C
OVCAR-3 = test system: OVCAR-3
SNB-19 = test system: SNB-19
OVCAR-4 = test system: OVCAR-4
SF-295 = test system: SF-295
SF-268 = test system: SF-268
CCRF-CEM = test system: CCRF-CEM
NCI-H522 = test system: NCI-H522
SK-MEL-2 = test system: SK-MEL-2
A498 = test system: A498
A549 = test system: A549
SK-OV-3 = test system: SK-OV-3

Measured: GI50

Nc1cc(S(N)(=O)=O)ccc1SSc1ccc(S(N)(=O)=O)cc1N
inactive: DU-145 > 100 µM | HOP-92 > 100 µM | MDA-MB-435 > 100 µM | SW-620 > 100 µM | NCI-H23 > 100 µM | COLO 205 > 100 µM | SN12C > 100 µM | OVCAR-3 > 100 µM | SNB-19 > 100 µM | OVCAR-4 > 100 µM | SF-295 > 100 µM | SF-268 > 100 µM | CCRF-CEM 8.49 µM | NCI-H522 > 100 µM | SK-MEL-2 > 100 µM | A498 > 100 µM | A549 > 100 µM | SK-OV-3 > 100 µM

NC(=O)CSc1c2cc(O)ccc2nc2ccc(O)cc12
inactive: DU-145 > 10 µM | HOP-92 > 10 µM | MDA-MB-435 > 10 µM | SW-620 > 10 µM | NCI-H23 > 10 µM | COLO 205 > 10 µM | SN12C > 10 µM | OVCAR-3 > 10 µM | SNB-19 > 10 µM | OVCAR-4 > 10 µM | SF-295 > 10 µM | SF-268 > 10 µM | CCRF-CEM > 10 µM | NCI-H522 > 10 µM | SK-MEL-2 > 10 µM | A498 > 10 µM | A549 > 10 µM | SK-OV-3 > 10 µM

N=C(N)Nc1nc2cc([N+](=O)[O-])ccc2[nH]1
inactive: DU-145 > 100 µM | HOP-92 > 100 µM | MDA-MB-435 > 100 µM | SW-620 > 100 µM | NCI-H23 68.7 µM | COLO 205 > 100 µM | SN12C 86.1 µM | OVCAR-3 99.3 µM | SNB-19 > 100 µM | OVCAR-4 > 100 µM | SF-295 66.2 µM | SF-268 > 100 µM | CCRF-CEM > 100 µM | NCI-H522 68.5 µM | SK-MEL-2 > 100 µM | A498 27 µM | A549 > 100 µM | SK-OV-3 > 100 µM

CC(C)(C)c1ccc(-c2nc3ccccc3c(=O)o2)cc1
inactive: DU-145 59.7 µM | HOP-92 28 µM | MDA-MB-435 > 100 µM | SW-620 48.2 µM | NCI-H23 34.3 µM | COLO 205 30.6 µM | SN12C 34.3 µM | OVCAR-3 24.5 µM | SNB-19 43.1 µM | OVCAR-4 35.7 µM | SF-295 23.8 µM | SF-268 53.6 µM | CCRF-CEM 19.3 µM | NCI-H522 30.3 µM | SK-MEL-2 22.8 µM | A498 71.6 µM | A549 27.9 µM | SK-OV-3 83.4 µM
